Read-outs that look alike come from different tables or passages of the source.
Tests used:
[1] = target: T1, human cytochrome P450 2E1 (Homo sapiens, UniProt P05181); assay: Steady-state p-nitrophenol oxidation, CYP2E1 inhibition in SUPERSOMES; type: biochemical
T1 construct: purchased BD Biosciences
Experimental: Initial velocities of the oxidation of p-nitrophenol (p-NP) to p-nitrocatechol by human cytochrome P450 2E1 were determined by measuring the absorption at 535 nm or 546 nm to determine product formation as described before.
Alternatively, 100 mM HEPES pH 7.6 was additionally used for the enzyme kinetic measurements. A final concentration of either 50 nM enzyme in form of SUPERSOMES™ from BD Biosciences or microsomes in case of cell culture experiments was added. Reaction was initiated by adding 500 μM (enzyme kinetic measurements) or 0.1 mM (cell culture experiments) NADPH after preincubation at 37° C and stopped by adding 20% trichloroacetic acid (TCA) after 30 minutes to ensure linearity of product formation. The protein concentration for the microsomal fraction was determined by Bradford assay to calculate the results expressed as units of specific activity defined as the amount of enzyme that consumes 1 μmol/L of NADPH per hour per microgram of protein. Inhibitor stock solutions were prepared in 0.1% DMSO and diluted to a final DMSO concentration of 0.003% in the reaction mixture at most to avoid enzyme inhibition by this solvent. Inhibitory constants (Ki) were calculated by non-linear fitting of initial velocities. Maximum inhibition could not be achieved since final inhibitor concentrations were limited by DMSO.
Supplementary file pone.0235990.s002.tif: S2 Fig CYP2E1 inhibition by data base inhibitors. To ascertain whether an imidazole containing compound is already commercially available and better suited for development as a drug can-didate, we performed a large virtual library screening of the ZINK database. We found 14,738 hits. The 5,261 commercially available compounds could be classified as 4,710 synthetic and 551 natural molecules. After docking and final scoring process, the seven best synthetic and the three best natural candidates were purchased and tested in vitro for their potential to inhibit CYP2E1 activity. Different concentrations of these compounds dissolved in DMSO were added to 110 μM p-Nitrophenol in 100 mM HEPES buffer pH 7.6 and SUPERSOMES™ with 50 nM human CYP 2E1 to calculate relative activity values. […] 20 μM corresponds to a DMSO volume of 0.02% (v/v). (TIF) Click here for additional data file.

CYP2E1 [2] = conditions: cited from earlier work
CYP2E1 [3] = conditions: cited from earlier work; remark: listed apart in the source
cholesterol synthesis = tested on: cholesterol synthesis; parameters: method as in printed; conditions: high concentrations (> or =1.0 mmol/L); ref not given; cited from earlier work
ethanol-fed Wistar rats [4] = assay: Serum liver enzyme activities of ethanol-fed rats; type: in vivo, rat
From the text: (§1) A total of 68 female Wistar rats (Institute of Pharmacology and Biochemistry Breeding House, Minsk, Belarus) aged 80–90 days and weighting 180–200 g at the beginning of the experiments were used in the study. Each rat group (n = 6–8) was housed in a separate cage and had free access to the liquid diet during the full study period. Prior to the study, the animals were habituated for seven days to the cage conditions and experimental handling. The rats were maintained in a controlled experimental environment (20–25°C, 40–50% humidity, 12 h light per day, room with a 12-h light/dark cycle).
(§2) Rats were divided into ten groups characterized by the diet and the test compounds (S1 Table). Group 1 is the first control group in which a normal solid standard diet was fed for 12 weeks. All other groups received the liquid Lieber-DeCarli (LDC) diet (S2 Table), which combines food and drink in a liquid manner. It was prepared by ssniff Spezialdiäten GmbH, Soest. The addition of maltodextrin to this diet should compensate the pure caloric effect of ethanol, whereby 1.77 g maltodextrin replaces 1 g ethanol. The calorie value of both the control and ethanol diets was the same: 35% calories from fat, 11% from carbohydrates, 18% from protein and 36% from ethanol.
(§3) In the first two weeks rats of all groups–with the exception of group 1 –were fed with LDC diet plus maltodextrin in an appropriate amount to adapt the animals to the liquid diet. Group 2 is the second control group in which the isocaloric diet was administered for further 10 weeks until the end of the experiment. […] The test compounds I-ol, I-an and UDCA were dissolved in a 0.8% aqueous HPMC gel to obtain the appropriate concentrations: (1) I-ol with 0.4, 4 and 40 mg/kg b. w. (2) I-an with 0.4, 4 and 40 mg/kg b. w. (3) UDCA with 40 mg/kg b. w. Rats of group 2 and 3 received only HPMC as a placebo. The LDC diets were fed ad libitum and their intake per cage was controlled daily. The corresponding bottles were stored in the cages from 08:00 a. m. until 06:00 p. m. and replaced by drinking water bottles overnight until 08:00 a. m. in the next morning. Every day at the same time, the test compounds or only HPMC were administered intragastrically by oral gavage with an administration volume of 2 ml/kg b. w. After ten weeks of treatment, the rats were anesthetized with an intraperitoneal injection of a 5% pentobarbital solution and then killed by aorta scarification. Their livers were dissected and liver pieces frozen and stored in liquid nitrogen. A part of the liver was fixed for histological investigations. Blood was collected before sacrifice, centrifuged for serum preparation and finally stored in liquid nitrogen.
(§4) The serum marker enzyme activities, alanine aminotransferase (ALT), aspartate aminotransferase (AST), alkaline phosphatase (AP) and gamma-glutamyltransferase (γ-GT) as well as triglycerides and bilirubin were measured according to manufacturer’s instructions using standard commercial kits from Lachema (PLIVA-Lachema Diagnostika, Czech Republic). Serum concentrations of leptin, adiponectin and TNF-alpha were analyzed using commercial ELISA test kits: BioCat GmbH (Heidelberg, German) for adiponectin and TNF-alpha, BioVendor Laboratory Medicine Inc. (Brno, Czech Republic) for leptin. Insulin serum concentration was determined by radioimmunoassay using the commercially available kit RIO-insulin-PG-J125 (IBOCH, Minsk, Belarus). Glucose serum concentration was determined by the Accu-Check Active blood glucose testing system from Roche-Diagnostics GmbH (Mannheim, Germany).

ethanol-fed Wistar rats [5] = assay: Liver and serum lipid parameters of ethanol-fed rats; type: in vivo, rat
From the text: as §1, §2, §3, §4
Lipids were extracted with a chloroform: methanol mixture (2:1 v/v). Neutral lipids and phospholipids were separated into classes by thin-layer chromatography (TLC). Lipid fractions (triglycerides, cholesterol and its fractions) were measured in extracts from scraped spots by routine methods using the appropriate commercial kits. […]

ethanol-fed Wistar rats [6] = assay: Oxidative stress parameters in liver of ethanol-fed rats (Lieber-DeCarli diet); type: in vivo; conditions: rat liver
From the text: as §1, §2, §3
The generation of reactive oxygen species (ROS) in rat liver was evaluated by NADPH-induced chemiluminescence with amplification by both luminol for the detection of superoxide (SRA) radical anion and lucigenin detecting hydrogen peroxide as described by Müller-Peddinhaus. In short, liver pieces were homogenized in 0.1 M sodium phosphate buffer pH 7.4. The homogenates were centrifuged at 9,000 x g at 0°C and aliquots were used for the measurement. Reduced glutathione (GSH) was determined by a modified Ellman`s method: 0.2 ml of the liver homogenates’ supernatant were added to 1.6 ml of an EDTA-/sodium […] solution. The absorbance was read at […] against blanks. GSH solution—prepared immediately before use—served as a standard. End products of the lipid peroxidation reaction are equivalent to TBARS (thiobarbituric acid-reacting substances) and their concentration was measured according to Buege et al.. The enzymatic activity of cytosolic glutathione peroxidase (GPx) and microsomal glutathione reductase (GR) were determined as described by Buko at al.. Catalase activity was evaluated by spectrophotometric measurement using hydrogen peroxide as a substrate according to Beers et al.. […]

ethanol-fed Wistar rats [7] = assay: Liver histopathology of ethanol-fed rats; type: in vivo, rat; conditions: I-ol, I-an in their higher concentrations; UDCA 40 mg/kg b.w.; H.E. staining
Experimental: as §3
Liver samples were selected randomly, fixed in Bouin`s solution and embedded in paraffin wax. Histological sections were prepared and stained with haematoxylin and eosin. Other liver samples were fixed in a solution containing formaldehyde, paraformaldehyde and glutaraldehyde with a subsequent post-fixation in 1% osmium containing phosphate buffer pH 7.4 for further analysis. Liver tissue was embedded in a mixture of butyl-methyl-metacrylates. Semifine sections of 0.5–1.0 μm were stained with Asur II, methylen blue and basic fuxine.

[8] = cited from earlier work
[9] = literature survey, ref not given
[10] = average over doses (UDCA 40 mg/kg)
[11] = liver, average over doses (UDCA 40 mg/kg)
[12] = serum, average over doses (UDCA 40 mg/kg)
[13] = average over 0.4/4/40 mg/kg b.w. (UDCA 40 mg/kg), oral, 10 weeks

T1 sequence (P05181 whole entry): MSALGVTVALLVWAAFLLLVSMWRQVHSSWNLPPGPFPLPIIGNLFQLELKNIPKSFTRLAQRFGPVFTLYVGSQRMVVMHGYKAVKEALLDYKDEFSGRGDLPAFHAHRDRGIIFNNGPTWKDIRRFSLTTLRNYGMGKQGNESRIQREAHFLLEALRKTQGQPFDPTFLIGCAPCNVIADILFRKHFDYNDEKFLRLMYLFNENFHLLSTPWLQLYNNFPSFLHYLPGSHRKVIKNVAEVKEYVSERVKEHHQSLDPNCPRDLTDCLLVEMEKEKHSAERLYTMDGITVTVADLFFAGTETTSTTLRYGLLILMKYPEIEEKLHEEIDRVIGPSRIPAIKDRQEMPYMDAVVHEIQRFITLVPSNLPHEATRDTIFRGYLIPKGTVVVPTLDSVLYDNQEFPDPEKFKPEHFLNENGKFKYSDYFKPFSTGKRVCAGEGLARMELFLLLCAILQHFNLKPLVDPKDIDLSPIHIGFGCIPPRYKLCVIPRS

Q: With `OCCCCCCCCCn1ccnc1` [I-nonanol, 9-imidazolyl-1-nonanol] as the compound, how does the “inhibitory effect on CYP2E1 (in words)” value ([1]; human CYP2E1 SUPERSOMES) read?
A: almost identical

Q: Which “effect on CYP2E1 activity (in words)” value (CYP2E1 [2]) does the source give for Silymarin here?
A: Has no influence on CYP2E1 activity. Clinical trails with patients having alcoholic liver cirrhosis showed controversial results.

Q: For `C[N+](C)(C)CCOP(=O)([O-])OCCCCCCCCCCCCn1ccnc1` [I-phosphocholine, 12-Imidazolyl-dodecan-1-yl-phosphocholine], which Ki ([1]; human CYP2E1 SUPERSOMES, p-nitrophenol oxidation, competitive model with offset) is on record?
A: 22 µM

Q: With `O=C(O)CCCCCCCCCCCn1ccnc1` [12 (imidazolyl) dodecanoic acids, 12-(imidazolyl)-dodecanoic acid] as the compound, how does the “affinity to CYP2E1 compared to other ω imidazolyl alkanoic acids (in words)” value (CYP2E1 [3]; ref Porubsky, Battaile et al. 2010) read?
A: highest affinity

Q: Which IC50 ([1]; solvent inhibition of CYP2E1) does the source give for `C[S+](C)[O-]` [DMSO] here?
A: 0.065 % (v/v)

Q: For `C[S+]([O-])CCCCN=C=S` (stereo not shown) [Sulforaphane], which “effect on CYP2E1 activity (in words)” value (CYP2E1 [2]; [9]) is on record?
A: Sulforaphane does not inhibit CYP2E1 in the knockin mouse modell.

Q: Which spin shift (CYP2E1 [3]) does the source give for `O=C(O)CCCCCn1ccnc1` [ω-imidazolylhexanoic acid] here?
A: missing spin shift

Q: Which “effect on CYP2E1 activity (in words)” value (CYP2E1 [2]; [9]) does the source give for `C[N+](C)(C)CC(=O)O` [Betaine] here?
A: Betaine reduces CYP2E1 activity only to a minor extend, while attenuating ASH. People with high cholesterol should use betaine anhydrous cautiously.

Q: With `OCCCCCCCn1ccnc1` [I-heptanol, 7-imidazolyl-1-heptanol] as the compound, how does the “inhibitory effect on CYP2E1 (in words)” value ([1]; human CYP2E1 SUPERSOMES) read?
A: dramatic decrease in inhibitory performance

Q: For `C=CCSSCC=C` [Diallyl disulfide (DADS), Diallyl disulfide], which “cholesterol synthesis (in words)” value (cholesterol synthesis) is on record?
A: abolished

Q: Which “inhibitory effect on CYP2E1 (in words)” value ([1]; human CYP2E1 SUPERSOMES) does the source give for `OCCCCCCCCCCn1ccnc1` [I-decanol, 10-imidazolyl-1-decanol] here?
A: almost identical

Q: Which results are given for `C[C@H](CCC(=O)O)[C@H]1CC[C@H]2[C@@H]3[C@@H](O)C[C@@H]4C[C@H](O)CC[C@]4(C)[C@H]3CC[C@]12C` [UDCA, ursodeoxycholic acid, reference compound]?
A: reduction of ethanol effect on γ-GT activity (ethanol-fed Wistar rats [4]; UDCA 40 mg/kg): 61%; ALT activity decrease compared to disease group (ethanol-fed Wistar rats [4]; [10]): 33%; AP activity decrease compared to disease group (ethanol-fed Wistar rats [4]; [10]): 20%; AST activity decrease compared to disease group (ethanol-fed Wistar rats [4]; [10]): 19%; reduction of ethanol effect on AST activity (ethanol-fed Wistar rats [4]; [10]): 83%; γ-GT activity decrease compared to disease group (ethanol-fed Wistar rats [4]; [10]): 33%; reduction of ethanol effect on alkaline phosphatase (AP) activity (ethanol-fed Wistar rats [4]; on average (UDCA 40 mg/kg)): 66%; liver cholesterol decrease compared to disease group (ethanol-fed Wistar rats [5]; liver, UDCA 40 mg/kg): 11%; reduction of ethanol effect on hepatic cholesterol (ethanol-fed Wistar rats [5]; liver, UDCA 40 mg/kg): 78%; reduction of ethanol effect on hepatic triglycerides (ethanol-fed Wistar rats [5]; liver, average over 0.4/4/40 mg/kg b.w. (UDCA 40 mg/kg), oral, 10 weeks): 55%; liver phospholipids decrease compared to disease group (ethanol-fed Wistar rats [5]; [11]): 20%; liver triglycerides decrease compared to disease group (ethanol-fed Wistar rats [5]; [11]): 31%; reduction of ethanol effect on hepatic phospholipids (ethanol-fed Wistar rats [5]; [11]): completely eliminated; reduction of ethanol effect on serum LDL cholesterol (ethanol-fed Wistar rats [5]; serum, UDCA 40 mg/kg): no significant effect; reduction of ethanol effect on serum VLDL (ethanol-fed Wistar rats [5]; serum, UDCA 40 mg/kg): no statistically significant reduction; reduction of ethanol effect on serum triglycerides (ethanol-fed Wistar rats [5]; [12]): 79%; serum triglycerides decrease compared to disease group (ethanol-fed Wistar rats [5]; [12]): 39%; reduction of ethanol effect on hydrogen peroxide (ethanol-fed Wistar rats [6]; I-ol, I-an 0.4/4/40 mg/kg b.w., UDCA 40 mg/kg, oral, 10 weeks): 46%; GPx activity decrease compared to disease group (ethanol-fed Wistar rats [6]; UDCA 40 mg/kg b.w.): 21%; reduction of ethanol effect on TBARS (ethanol-fed Wistar rats [6]; average over 0.4/4/40 mg/kg b.w. (UDCA 40 mg/kg)): no statistic significant reduction; reduction of ethanol effect on superoxide radical anion (SRA) (ethanol-fed Wistar rats [6]; average over 0.4/4/40 mg/kg b.w. (UDCA 40 mg/kg), daily oral gavage, 10 weeks): no statistic significant reduction; hydrogen peroxide decrease compared to disease group (ethanol-fed Wistar rats [6]; [13]): 32%; reduction of ethanol effect on reduced glutathione (GSH) (ethanol-fed Wistar rats [6]; [13]): no statistically significant changes; reduction of ethanol effect on glutathione reductase (GR) activity (ethanol-fed Wistar rats [6]; [10]): no statistically significant result; GPx activity below the reference value in healthy animals (ethanol-fed Wistar rats [6]; highest concentration (UDCA 40 mg/kg b.w.)): 28%; liver morphology (histopathology, in words) (ethanol-fed Wistar rats [7]): reduce the histopathological effects of ethanol in a comparable way; long-term high-dose safety finding ([8]; 28–30 mg/kg/day, patients with ulcerative colitis and PSC): increased risk of colorectal neoplasia; mortality at maximum follow-up versus no intervention group ([8]; network meta-analysis, alcoholic liver disease): higher

Q: With `C[S+](CC[C@H](N)C(=O)[O-])C[C@H]1O[C@@H](n2cnc3c(N)ncnc32)[C@H](O)[C@@H]1O` (stereo partly drawn) [S-adenosyl-L-methionine (SAM), S-adenosyl-L-methionine] as the compound, how does the “effect on CYP2E1 activity (in words)” value (CYP2E1 [2]; [9]) read?
A: CYP2E1 activity (SAM is a non-competitive inhibitor), reactive oxygen species, anti-fibrogenic action, clinical trial

Reference: paper PMC7377376, “Drug targeting CYP2E1 for the treatment of early-stage alcoholic steatohepatitis” (PLoS ONE, 2020)
